Data reported in US5637318A, “Dermatological agent for assisting the transport of oxygen in the skin” (Lancaster Group AG, priority 1992, dated 1997).
Where two headings read alike, the source gives them in different places.

What was measured:
[1] = 37° C.; cited from earlier work
skin tissue [2] = experiment: Penetration and residence of labelled encapsulated fluorocarbons in skin tissue, animal experiments
From the text: (§1) It was possible to determine the dependence of the penetration rate and the depth of penetration of the particle size of the aggregates experimentally by separate investigations in animal experiments using labelled encapsulated fluorocarbons. […] The choice of fluorocarbons or mixtures thereof according to their lipid solubility (represented by their critical solubility temperature CST in n-hexane) permits, as a further important criterion, the regulation of the residence time in the tissue.

[3] = Critical solubility temperature (CST) in n-hexane; format: physicochemical; conditions: represented by CST in n-hexane
From the text: The choice of fluorocarbons or mixtures thereof according to their lipid solubility (represented by their critical solubility temperature CST in n-hexane) permits, as a further important criterion, the regulation of the residence time in the tissue.

skin tissue [4] = conditions: in vivo
From the text: as §1

FC(F)(F)C(F)(F)C(F)(F)C(F)(F)C1(F)OC(F)(F)C(F)(F)C1(F)F (centres unmarked) [Perfluorobutyl-tetrahydrofuran]
Vapour Pressure [1]: 51 mm Hg | residence time in the tissue / release from the tissue (skin tissue [2]): released correspondingly more rapidly from the tissue

FC(F)(F)C(F)(F)C(F)(F)C(F)(F)C(F)(F)C(F)(F)C(F)(F)C(F)(F)Br [Perfluorooctyl bromide]
Vapour Pressure [1]: 14 mm Hg

FC(F)(F)C(F)(F)C(F)(F)C(F)(F)N(C(F)(F)C(F)(F)C(F)(F)C(F)(F)F)C(F)(F)C(F)(F)C(F)(F)C(F)(F)F [F-tributylamine]
Vapour Pressure [1]: 1 mm Hg | lipid solubility [3]: poor lipid solubility | residence time in the tissue / release from the tissue (skin tissue [2]): relatively large residence time

FC(F)(F)C(F)(F)C(F)(F)C(F)(F)C(F)(F)C(F)(F)F [F-hexane]
Vapour Pressure [1]: 414 mm Hg

FC(F)(F)C(F)(F)C(F)(F)C(F)(F)C(F)(F)C(F)(F)OC(F)(F)C(F)(F)C(F)(F)C(F)(F)C(F)(F)C(F)(F)F [F-dihexyl ether]
Vapour Pressure [1]: 2 mm Hg

FC1(F)OC(F)(F)C(F)(F)N(C(F)(F)C2(F)C(F)(F)C(F)(F)C(F)(F)C(F)(F)C2(F)F)C1(F)F [F-cyclohexylmethyl-morpholine]
Vapour Pressure [1]: 4 mm Hg

FC(F)(F)C(F)(F)C(F)(F)N(C(F)(F)C(F)(F)C(F)(F)F)C(F)(F)C(F)(F)C(F)(F)F [F-tripropylamine]
Vapour Pressure [1]: 18.5 mm Hg

FC(F)(F)C1(F)C(F)(F)C(F)(F)C(F)(F)C(F)(F)C1(F)F [F-methylcyclohexane]
Vapour Pressure [1]: 180 mm Hg

FC(F)(F)C(F)(F)C(F)(F)C(F)(F)C=CC(F)(F)C(F)(F)C(F)(F)C(F)(F)F [bis-F(butyl)ethene]
Vapour Pressure [1]: 12.6 mm Hg

FC1(F)C(F)(F)C(F)(F)C2(F)C(F)(F)C(F)(F)C(F)(F)C(F)(F)C2(F)C1(F)F (centres unmarked) [Perfluorodecalin]
Vapour Pressure [1]: 12.5 mm Hg | residence time in the tissue / release from the tissue (skin tissue [4]): released correspondingly more rapidly from the tissue
